In US8377875B2, “Therapeutics based on tau/microtubule dynamics” (Ramot at Tel-Aviv University Ltd., priority 2007, dated 2013):
Ends that are not written are not given here.

What was measured:
[1] = tested on: tubulin tyrosination cycle in rat pheochromocytoma cells (PC12); test: Cell-based tubulin tyrosination cycle assay in PC12 cells (confocal microscopy, ELISA); conditions: 2 hr
Description: Changes in the tubulin tyrosination cycle were used to study the effects of NAP on microtubule dynamics (Gozes and Littauer, Nature. 276:411-413 (1978)). This cycle includes the slow removal of the C-terminal tyrosine of microtubule alpha tubulin, resulting in Glu-tubulin and the fast re-addition of tyrosine (Tyr) to soluble alpha-tubulin in a reaction requiring ATP. […] A cell-based assay for anti-microtubule activity that relies on the properties above allows the identification of both microtubule-destabilizing and microtubule-stabilizing agents. The assay allows assessment of the relative degree of stable microtubule versus dynamic microtubules (Vassal et al., J Biomol Screen, 11: 377-389 (2006)) using confocal microscopy as well as quantitative Enzyme-Linked Immunosorbent Assay (ELISA).
Rat pheochromocytoma cells (PC12) were grown in Dulbecco's modified eagles medium (DMEM) supplemented with 5% fetal bovine serum and 10% donor horse serum 1% penicillin—streptomycin, 1% L-Glutamine (Beit Haemek, Israel) in an atmosphere of 5% CO2 and 95% air at 37° C. […] Cells were seeded on 96, 48 or 24 well plates in 100, 300 or 500 μl of medium volumes respectively and allowed to grow for 48 hr.
In short, medium was aspirated and cells were incubated for 3 min with 100, 300 or 500 μl warm MTSBT (Pipes pH 6.8 80 mM, EGTA 4 mM, MgCl2 1 mM, Triton X-100 0.5% v/v) buffer followed by 6 min with 100, 300 or 500 μl cold methanol (−20° C.). Blocking followed a re-hydration in cold TBST (NaCl 0.15 M, Tris-Cl pH 7.4, Triton X-100 0.1% v/v) followed by 5% non fat milk in TBST 10 min at room temp or −50 μg/ml of Goat IgG in AbDil [TBST+2% bovine serum albumin (Sigma, Rehovot Israel)] 10 min at room temp. For microtubule and nuclear staining, 50 μl (per well) of rat monocloncal antibodies detecting tyrosinated tubulin (YL1/2, Abcam, Cambridge, UK) and rabbit polyclonal antibodies detecting glutaminated tubulin (Abcam, Cambridge, UK) at 1:1000 dilution were added. After a 2 hr (37° C.) incubation the cells were washed twice with TBST or TBS and 50 μl per well of secondary goat anti-rat coupled by Cynine 3—Cy3 (1:1000), Cy2 goat anti rabbit (1:1000) (Jackson ImmunoResearch, West Grove, Pa., U.S.A), and Hoechst 33258 (Sigma) 1 μg/ml were added. Following one hour incubation at 37° C. and 3 washes in TBST or TBS, fluorescence was measured using Tecan Microplate fluorescent reader (Neoteck scientific instrumentation, Switzerland) infinite F200 and Magellan software version 6.3.
For visual inspection, cells were seeded on microscope cover slips, mounted on slides and inspected using confocal microscopy as before (Divinski et al. (2006)). […]

[2] = tested on: cell cultures; conditions: cited from earlier work
[3] = tested on: model of fetal alcohol syndrome; conditions: in vivo, ip; cited from earlier work
[4] = tested on: microtubule formation; conditions: cited from earlier work
[5] = tested on: MAP-2 expression in neuronal cells; conditions: cited from earlier work
[6] = tested on: NIH 3T3 fibroblasts; conditions: cited from earlier work
[7] = molecular target: T1, tau-three microtubule binding domain repeats (Homo sapiens, UniProt P10636); test: Dot blot analysis of peptide binding to tau; conditions: peptide 10^−3M spotted, 2 μM tau
T1 construct: made in house
Method: For Dot Blot analysis, 5 μl of each sample [vasoactive intestinal peptide VIP (Dangoor et al., Regul Pept, 137: 42-49 (2006)); negative control and NAP 10^−3M) was applied onto the nitrocellulose membrane (Schleicher & Schuell, Dassel, Germany), and was left to dry (2 hr, room temperature). The membrane was further incubated with 2 μM tau-three microtubule binding domain repeats (1.5 hr, room temperature). The non-specific sites were blocked by soaking in a blocking solution (10 mM Tris, 6 mM NaCl, 0.05% Tween 20) that was supplemented with 5% low-fat milk (1 hr at room temperature). The membrane was incubated with primary antibody (tau5 antibody 1:1000), dissolved in 5% milk in blocking solution (12 hours at 4 C). The membrane was then washed three times with the blocking solution (3×10 min), incubated with secondary antibody conjugated with horseradish peroxidase (HRP) (1 hr at room temperature) and washed again three times with blocking solution (10 min×3). The membrane was incubated with ECL reagent (Western blotting detection system; Amersham Biosciences) for 1 min, covered and exposed Biomax Light Film (Kodak, Rochester, N.Y., USA). […]

[8] = tested on: beta tubulin; test: Microtubule pelleting assay, western blot with TUB2.1 beta tubulin antibody; format: biochemical; conditions: NAP 1 pM, tubulin 10 μM, tau ~2.5 μM; 6 independent experiments
Method: FIG. 5 illustrates the effect of NAP on beta tubulin precipitation (10 μM) with tau (2.5 μM) during microtubule (MT) assembly. NAP (1 pM) incubation apparently reduces beta tubulin in the microtubule pellet. The monoclonal antibody used (TUB2.1) interacts specifically with beta tubulin species. Gozes and Barnstable, Proc Natl Acad Sci USA, 79: 2579-2583 (1982). Blots were performed as before (Divinski et al., J Neurochem, 98: 973-984 (2006)). S=supernatant; P=pellet.
Densitometric scanning of the western blots (e.g. FIG. 5) including 6 independent experiments are depicted on the figure. S=supernatant; P=pellet; western blot antitubulin 2.1, 1:1, 400.
(§1) Tubulin, tau and NAP were prepared as described in Example 1. The microtubule pelleting assay was also carried out as in Example 1.
The resulting pellet was subjected to 12.0% polyacrylamide gel containing SDS (Kar et al. (2003)). Gels were either stained for proteins (Coomassie Brilliant Blue) or subjected to western analysis to specifically identify and quantitate tubulin in the microtubule pellet. Three different antibodies were used, rabbit anti tubulin (Gozes et al. (1977)), mouse monoclonal antibodies that prefers neuronal beta tubulin species, TUB2.1 (Boss et al., Brain Res, 433:199-218 (1987); Gozes and Barnstable (1982)) and tubulin beta III (neuronal enriched) antibodies as before (Divinski et al. (2006)). […]

[9] = in vivo; cited from earlier work
[10] = tested on: closed head injury in mice; conditions: cited from earlier work
[11] = tested on: tubulin; test: Microtubule pelleting assay, western blot with polyclonal tubulin antibodies; format: biochemical; conditions: NAP 1 pM, tubulin 10 μM, tau ~2.5 μM
Method: FIG. 9 illustrates the effect of NAP on tubulin precipitation (10 μM) with tau (2.5 μM) during microtubule (MT) assembly. The experiment was carried out as in FIG. 5, except that polyclonal tubulin antibodies were used. (Gozes et al., FEBS Lett. 73(1):109-14 (1977)).
Densitometric scanning of the western blots (e.g. FIG. 9) including 6 independent experiments are depicted on the figure. S=supernatant; P=pellet; western blot anti tubulin, 1:1, 400-2000.
as §1
The resulting pellet was subjected to 12.0% polyacrylamide gel containing SDS (Kar et al. (2003)). Gels were either stained for proteins (Coomassie Brilliant Blue) or subjected to western analysis to specifically identify and quantitate tubulin in the microtubule pellet. Three different antibodies were used, rabbit anti tubulin (Gozes et al. (1977)), mouse monoclonal antibodies that prefers neuronal beta tubulin species, TUB2.1 (Boss et al., Brain Res, 433:199-218 (1987); Gozes and Barnstable (1982)) and tubulin beta III (neuronal enriched) antibodies as before (Divinski et al. (2006)). Western blotting was performed as before (Divinski et al. (2006)).

[12] = molecular target: tau (Homo sapiens, UniProt P10636); test: Affinity chromatography on NAP-affinity column with tau-specific western blot; format: binding
[13] = molecular target: T2, beta III tubulin (Homo sapiens, UniProt Q13509); test: Microtubule pelleting assay, western blot with beta III tubulin antibodies; format: biochemical; conditions: NAP 1 pM, tubulin 10 μM, tau 2.5 μM; vs absence of NAP
T2 construct: purchased Cytoskeleton (Denver, Colo., USA)
Method: FIG. 7 illustrates the effect of NAP (1 pM) on beta III tubulin precipitation (10 μM) with tau (2.5 μM) during microtubule (MT) assembly. The experiment was carried out as in FIG. 5, except that beta III antibodies were used. S=supernatant; P=pellet. The reduction of beta III tubulin in the pellet was significant (P<0.05). Beta III tubulin is enriched in neurons (Banerjee et al., J. Biol. Chem. 265: 1794-1799 (1990); Joshi and Cleveland, Cell Motil. Cytoskeleton 16:159-163 (1990)).
Densitometric scanning of the western blots (e.g. FIG. 7) including 8 independent experiments are depicted on the figures. S=supernatant; P=pellet; western blot anti beta III tubulin, 1:1, 400. The reduction reached significance (*P<0.05).
as §1
The resulting pellet was subjected to 12.0% polyacrylamide gel containing SDS (Kar et al. (2003)). Gels were either stained for proteins (Coomassie Brilliant Blue) or subjected to western analysis to specifically identify and quantitate tubulin in the microtubule pellet. […]

[14] = tested on: ischemic injury; conditions: after ischemic injury; cited from earlier work
[15] = tested on: tau hyperphosphorylation; conditions: animal models; cited from earlier work
[16] = tested on: tubulin; conditions: cited from earlier work
[17] = tested on: microtubules (tubulin and tau); test: Transmission electron microscopy of microtubules from mixtures of tubulin, tau and NAP; format: biochemical
Method: FIGS. 3A-E show electron microscopy studies were carried out on mixtures of tubulin, tau, and NAP. […] FIGS. 3A and 3C are 25,000× magnification; FIGS. 3B and 3D are 200,000× magnification. […] Additional electron microscopy studies were carried out on mixtures of NAP (1 pM, lanes 4,5,6. […]), tubulin 6 μM (lanes1,4, FIG. 3E) or 10 μM (lanes 2,3,5,6, FIG. 3E) and tau. Tubulin was obtained from Cytoskeleton (Denver, Colo., USA) and tau (0.7 μM) was purified from recombinant cDNA obtained from Professor Linda Amos (Kar et al., Embo J, 22: 70-77 (2003).). […] The box plot represents 3 different experiments (control vs. NAP-treated). Each experiment consists of either three or four repeats. P<0.001. The density of the microtubules was estimated by counting 20-23 fields in each of the experimental samples.
Transmission electron microscopy was carried out to identify and quantitate microtubule size and appearance in the presence and absence of NAP (in the microtubule pellets described above). Grids were stained with […].

[18] = tested on: normal aging rats; conditions: intranasal administration; cited from earlier work
[19] = tested on: tubulin; test: Tubulin-NAP binding
[20] = tested on: mixed neuroglial cultures from newborn rat cortex; test: Neuroprotection against beta-amyloid 1-42 in mixed neuroglial cultures, MAP2 ELISA; format: cell-based; conditions: 0.25 μM beta-amyloid 1-42, 5 days, n=10 per data point

T1 sequence (P10636 1-410 isoform P10636-5): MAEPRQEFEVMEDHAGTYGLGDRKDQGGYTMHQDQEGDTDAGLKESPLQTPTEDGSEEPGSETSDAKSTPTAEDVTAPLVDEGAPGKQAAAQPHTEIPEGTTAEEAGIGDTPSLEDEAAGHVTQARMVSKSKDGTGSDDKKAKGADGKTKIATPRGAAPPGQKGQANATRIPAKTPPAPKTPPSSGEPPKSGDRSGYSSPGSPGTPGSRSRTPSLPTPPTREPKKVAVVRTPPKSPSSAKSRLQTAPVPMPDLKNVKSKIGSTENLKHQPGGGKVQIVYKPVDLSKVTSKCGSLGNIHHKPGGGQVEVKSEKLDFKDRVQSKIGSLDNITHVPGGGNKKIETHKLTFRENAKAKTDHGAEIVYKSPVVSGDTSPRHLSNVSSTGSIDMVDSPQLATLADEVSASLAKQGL
tau, sequence (P10636 1-441 isoform P10636-8): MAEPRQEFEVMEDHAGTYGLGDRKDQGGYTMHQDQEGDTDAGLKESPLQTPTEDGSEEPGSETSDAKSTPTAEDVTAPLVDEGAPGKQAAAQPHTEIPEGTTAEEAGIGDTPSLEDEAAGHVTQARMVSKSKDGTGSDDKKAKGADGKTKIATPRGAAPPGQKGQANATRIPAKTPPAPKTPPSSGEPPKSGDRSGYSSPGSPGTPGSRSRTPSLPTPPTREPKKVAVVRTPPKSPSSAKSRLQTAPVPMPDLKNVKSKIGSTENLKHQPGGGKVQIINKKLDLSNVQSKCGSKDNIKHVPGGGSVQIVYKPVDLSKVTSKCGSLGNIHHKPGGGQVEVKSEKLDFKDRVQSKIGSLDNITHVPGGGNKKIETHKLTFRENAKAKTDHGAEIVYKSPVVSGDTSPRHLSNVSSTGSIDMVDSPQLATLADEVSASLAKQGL
T2 sequence (Q13509 whole entry): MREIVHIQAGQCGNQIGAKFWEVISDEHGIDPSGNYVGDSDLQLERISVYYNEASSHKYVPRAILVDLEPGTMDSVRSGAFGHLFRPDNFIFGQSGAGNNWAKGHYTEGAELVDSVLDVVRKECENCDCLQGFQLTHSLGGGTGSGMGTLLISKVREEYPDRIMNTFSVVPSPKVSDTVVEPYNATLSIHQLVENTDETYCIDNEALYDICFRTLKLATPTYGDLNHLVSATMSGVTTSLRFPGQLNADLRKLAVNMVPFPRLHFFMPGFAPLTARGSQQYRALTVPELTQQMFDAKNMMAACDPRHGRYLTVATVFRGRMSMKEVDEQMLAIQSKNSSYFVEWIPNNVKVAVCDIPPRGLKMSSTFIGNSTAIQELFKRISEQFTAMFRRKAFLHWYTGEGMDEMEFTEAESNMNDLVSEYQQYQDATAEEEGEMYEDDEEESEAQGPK
T2 sequence (Q71U36 whole entry partner): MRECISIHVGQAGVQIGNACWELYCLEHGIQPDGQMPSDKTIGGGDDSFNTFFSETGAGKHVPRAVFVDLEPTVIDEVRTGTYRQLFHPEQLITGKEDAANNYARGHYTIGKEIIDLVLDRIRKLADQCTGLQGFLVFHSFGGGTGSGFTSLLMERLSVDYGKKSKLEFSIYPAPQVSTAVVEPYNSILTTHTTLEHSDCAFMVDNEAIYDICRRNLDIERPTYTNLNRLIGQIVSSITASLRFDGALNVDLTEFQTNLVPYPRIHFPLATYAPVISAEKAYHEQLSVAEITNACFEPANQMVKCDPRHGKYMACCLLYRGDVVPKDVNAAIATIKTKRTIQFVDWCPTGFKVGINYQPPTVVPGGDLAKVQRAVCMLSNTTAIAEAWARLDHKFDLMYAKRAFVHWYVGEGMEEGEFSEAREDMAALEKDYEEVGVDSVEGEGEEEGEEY

**Q.** With `CC(=O)O[C@H]1C(=O)[C@@]2(C)[C@H]([C@H](OC(=O)c3ccccc3)[C@]3(O)C[C@H](OC(=O)[C@H](O)[C@@H](NC(=O)c4ccccc4)c4ccccc4)C(C)=C1C3(C)C)[C@]1(OC(C)=O)CO[C@@H]1C[C@@H]2O` [paclitaxel, reference compound] as the compound, how does the detyrosinated tubulin ([1]; paclitaxel 5 μM) read?
**A.** significantly increased detyrosinated tubulin

**Q.** With Asn-Ala-Pro-Val-Ser-Ile-Pro-Gln [NAP] as the compound, how does the “neuroprotective activity against a wide variety of toxins” value [2] read?
**A.** neuroprotective activity at femtomolar concentrations

**Q.** And the “fetal death after intraperitoneal injection of alcohol” value [3]?
**A.** inhibited

**Q.** And the “microtubule formation (turbidity)” value [4]?
**A.** stimulate microtubule formation

**Q.** And the MAP-2 expression [5]?
**A.** increases MAP-2 expression

**Q.** What about the “interaction with NIH 3T3 fibroblasts or other dividing cells” value [6] of the same compound?
**A.** does not interact

**Q.** What about the “binding to tau (dot blot)” value [7] of the same compound?
**A.** can bind directly to tau

**Q.** What about the “reduction of beta tubulin in the microtubule pellet (TUB2.1 antibody)” value [8] of the same compound?
**A.** not significant

**Q.** And the “crossing of the blood-brain barrier” value [9]?
**A.** can cross the blood-brain barrier

**Q.** And the “damage caused by closed head injury” value [10]?
**A.** reducing damage

**Q.** What about the “decrease of tubulin in the microtubule pellet (polyclonal anti-tubulin antibodies)” value [11] of the same compound?
**A.** no significant decrease

**Q.** And the “binding to tau (affinity chromatography)” value [12]?
**A.** binds to tau

**Q.** And the “decrease in tubulin beta III in the microtubule pellet” value [13]?
**A.** approximately 2 fold

**Q.** And the “infarct volume and motor function deficits” value [14]?
**A.** reduced infarct volume and motor function deficits

**Q.** And the “dose response for activation of the tyrosination cycle (ELISA)” value ([1]; 10^−19 M—10^−7M)?
**A.** biphasic dose response curve

**Q.** And the “activity on the tubulin tyrosination cycle” value ([1]; NAP 10^−11M)?
**A.** not active

**Q.** And the “tyrosinated and detyrosinated alpha tubulin” value ([1]; NAP 10^−15M)?
**A.** significantly increased tyrosinated and detyrosinated alpha tubulin

**Q.** And the tau hyperphosphorylation [15]?
**A.** protected against tau hyperphosphorylation

**Q.** And the binding to tubulin [16]?
**A.** binds tubulin

**Q.** What about the “microtubule density (electron microscopy)” value ([17]; NAP 1 pM, tubulin 6 or 10 μM, tau 0.7 μM, vs control w/o NAP) of the same compound?
**A.** increased microtubule density

**Q.** And the “curves and microtubule length (electron microscopy)” value ([17]; NAP-treated samples vs control w/o NAP)?
**A.** increases

**Q.** What about the “performance in the Morris water maze” value [18] of the same compound?
**A.** improved performance

**Q.** For “vasoactive intestinal peptide [VIP, reference compound]”, which “binding to tau (dot blot)” value [7] is on record?
**A.** does not interact

**Q.** For SALLRSIPA [ADNF-9], which “effect on tubulin-NAP binding” value [19] is on record?
**A.** diminish tubulin-NAP binding

**Q.** Which “concentrations at which neuronal survival was enhanced (MAP2 staining)” value [20] does the source give for “TAPVPMPD [a NAP-like, tau-derived peptide]” here?
**A.** 10^−19-10^−9 M
